# Measurements as given in PubChem BioAssay AID1918945 (Molecular Pharmacology Branch, DTP, NCI, 2023).
# Where “and” joins values, the source holds several entries; their conditions need not be identical. Equal values may be shown once.
# Test system: 883617-216-R-J1-PDC complex spheroid viability
# Assay: Anticancer human tumor 883617-216-R-J1-PDC patient-derived bladder carcinoma cell line growth inhibition
# Settings: for viability, T/C: stronger effect = lower value
# Procedure, shortened: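 Complex spheroids of tumor cells with HUVEC and human MSCs, exposed to iadademstat combined with other agents. Each agent tested in half-log steps from near clinical Cmax (else 10 microM top), DMSO ≤0.25%.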
# [1] = curve of first compound, second compound 0.1 µM
# [2] = curve of first compound, second compound 0.316 µM
# [3] = curve of first compound, second compound 1 µM
# [4] = curve of first compound, second compound 3.16 µM
# [5] = curve of first compound, second compound 10 µM
# 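Also: exposure lasted seven days after three days of spheroid growth.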
# 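For viability, T/C in this document: 100% = DMSO vehicle control luminescence.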
structure (smiles),measurement,setting,value
CC1(C)CCC(CN2CCN(c3ccc(C(=O)NS(=O)(=O)c4ccc(NCC5CCOCC5)c([N+](=O)[O-])c4)c(Oc4cnc5[nH]ccc5c4)c3)CC2)=C(c2ccc(Cl)cc2)C1 + NC1CC1c1ccc(-c2cccc(O)c2)cc1,IC50,[1],7.41 µM
same,IC50,[2],7.2 µM
same,IC50,[3],6.43 µM
same,IC50,[4],6.41 µM
same,IC50,[5],4.92 µM
same,"viability, T/C","second compound 0.1 µM, first compound 0.0316 µM",115%
same,"viability, T/C","second compound 0.1 µM, first compound 0.1 µM",116%
same,"viability, T/C","second compound 0.1 µM, first compound 0.316 µM",125%
same,"viability, T/C","second compound 0.1 µM, first compound 1 µM",129%
same,"viability, T/C","second compound 0.1 µM, first compound 3.16 µM",117%
same,"viability, T/C","second compound 0.1 µM, first compound 10 µM",26.2%
same,"viability, T/C","second compound 0.316 µM, first compound 0.0316 µM",128%
same,"viability, T/C","second compound 0.316 µM, first compound 0.1 µM",130%
same,"viability, T/C","second compound 0.316 µM, first compound 0.316 µM",131%
same,"viability, T/C","second compound 0.316 µM, first compound 1 µM",129%
same,"viability, T/C","second compound 0.316 µM, first compound 3.16 µM",118%
same,"viability, T/C","second compound 0.316 µM, first compound 10 µM",23%
same,"viability, T/C","second compound 1 µM, first compound 0.0316 µM",115%
same,"viability, T/C","second compound 1 µM, first compound 0.1 µM",121%
same,"viability, T/C","second compound 1 µM, first compound 0.316 µM",111%
same,"viability, T/C","second compound 1 µM, first compound 1 µM",121%
same,"viability, T/C","second compound 1 µM, first compound 3.16 µM",102%
same,"viability, T/C","second compound 1 µM, first compound 10 µM",17.4%
same,"viability, T/C","second compound 3.16 µM, first compound 0.0316 µM",124%
same,"viability, T/C","second compound 3.16 µM, first compound 0.1 µM",109%
same,"viability, T/C","second compound 3.16 µM, first compound 0.316 µM",106%
same,"viability, T/C","second compound 3.16 µM, first compound 1 µM",115%
same,"viability, T/C","second compound 3.16 µM, first compound 3.16 µM",107%
same,"viability, T/C","second compound 3.16 µM, first compound 10 µM",14%
same,"viability, T/C","second compound 10 µM, first compound 0.0316 µM",90.9%
same,"viability, T/C","second compound 10 µM, first compound 0.1 µM",96.8%
same,"viability, T/C","second compound 10 µM, first compound 0.316 µM",79.6%
same,"viability, T/C","second compound 10 µM, first compound 1 µM",83.1%
same,"viability, T/C","second compound 10 µM, first compound 3.16 µM",75.5%
same,"viability, T/C","second compound 10 µM, first compound 10 µM",11.2%
COc1ccc([C@@H](O)c2cc(-c3ncnc4cc(N5CCOCC5)ccc34)c(F)cc2Cl)nn1,"viability, T/C",compound 0.0316 µM,91.2% and 99.6%
same,"viability, T/C",compound 0.1 µM,89.8% and 86.9%
same,"viability, T/C",compound 0.316 µM,67.2% and 52.7%
same,"viability, T/C",compound 1 µM,48.6% and 41.2%
same,"viability, T/C",compound 3.16 µM,37.1% and 26.7%
same,"viability, T/C",compound 10 µM,22.2% and 14.9%
same,IC50,curve of compound,1 µM and 0.524 µM
Nc1ncn(C2CC(O)C(CO)S2)c(=O)n1 (configuration not stated) + NC1CCC(NC2CC2c2ccccc2)CC1,IC50,[1],> 0.3 µM
same,IC50,[2],> 0.3 µM
same,IC50,[3],0.291 µM
same,IC50,[4],> 0.3 µM
same,IC50,[5],> 0.3 µM
same,"viability, T/C","second compound 0.1 µM, first compound 0.000949 µM",106%
same,"viability, T/C","second compound 0.1 µM, first compound 0.003 µM",111%
same,"viability, T/C","second compound 0.1 µM, first compound 0.00949 µM",101%
same,"viability, T/C","second compound 0.1 µM, first compound 0.03 µM",72.9%
same,"viability, T/C","second compound 0.1 µM, first compound 0.0949 µM",59.1%
same,"viability, T/C","second compound 0.1 µM, first compound 0.3 µM",48.3%
same,"viability, T/C","second compound 0.316 µM, first compound 0.000949 µM",114%
same,"viability, T/C","second compound 0.316 µM, first compound 0.003 µM",110%
same,"viability, T/C","second compound 0.316 µM, first compound 0.00949 µM",102%
same,"viability, T/C","second compound 0.316 µM, first compound 0.03 µM",68.3%
same,"viability, T/C","second compound 0.316 µM, first compound 0.0949 µM",60.6%
same,"viability, T/C","second compound 0.316 µM, first compound 0.3 µM",52.8%
same,"viability, T/C","second compound 1 µM, first compound 0.000949 µM",113%
same,"viability, T/C","second compound 1 µM, first compound 0.003 µM",106%
same,"viability, T/C","second compound 1 µM, first compound 0.00949 µM",97.1%
same,"viability, T/C","second compound 1 µM, first compound 0.03 µM",75.4%
same,"viability, T/C","second compound 1 µM, first compound 0.0949 µM",57.5%
same,"viability, T/C","second compound 1 µM, first compound 0.3 µM",50.1%
same,"viability, T/C","second compound 3.16 µM, first compound 0.000949 µM",101%
same,"viability, T/C","second compound 3.16 µM, first compound 0.003 µM",106%
same,"viability, T/C","second compound 3.16 µM, first compound 0.00949 µM",86.1%
same,"viability, T/C","second compound 3.16 µM, first compound 0.03 µM",72.8%
same,"viability, T/C","second compound 3.16 µM, first compound 0.0949 µM",61.4%
same,"viability, T/C","second compound 3.16 µM, first compound 0.3 µM",53.7%
same,"viability, T/C","second compound 10 µM, first compound 0.000949 µM",110%
same,"viability, T/C","second compound 10 µM, first compound 0.003 µM",114%
same,"viability, T/C","second compound 10 µM, first compound 0.00949 µM",91.3%
same,"viability, T/C","second compound 10 µM, first compound 0.03 µM",74.8%
same,"viability, T/C","second compound 10 µM, first compound 0.0949 µM",67.7%
same,"viability, T/C","second compound 10 µM, first compound 0.3 µM",55.6%
